This is an account of results in patent EP0405998A1, “Antibiotic agents” (priority 1989, dated 1991).

One data set concerns Pneumocystis carinii. In words: Pneumocystis carinii infection in immunosuppressed mice, lung cyst count. Type of data set: in vivo, C3H/He mice. Conditions: 2.0 mg/kg intraperitoneally twice daily, lung tissue. As to the method:
In a representative study on the effectiveness of Compound IB, ten male C3H/He mice, weighing 22-24 gms. each, were immunosuppressed by the addition of dexamethasone to the drinking water (8.0 mg/L) for six weeks to induce the development of P. carinii infections. To enhance the infection the mice were also maintained on a low protein diet. At the beginning of the seventh week the mice were divided into two groups. Both groups continued to receive dexamethasone in the drinking water and low protein diet for the remainder of the study. Mice in Group I were injected intraperitoneally twice daily with 0.5 ml of a 10% dimethylsulfoxide (DMSO) solution as a vehicle control. Mice in Group II were injected intraperitoneally twice daily with 0.5 ml of sterile water containing 0.05 mg of compound IB (dissolved in DMSO, final concentration of DMSO is 10%, actual dose was 2.0 mg/kg). […]
At the end of the treatment period (a total of eight weeks immunosuppression) the animals were sacrificed and the lung tissue removed. The tissue was then processed to determine the number of cysts for each animal. Compound IB reduced the number of cysts by 84% as compared to the control animals. […]

In the next data set the test system is red blood cells. In words: titration/hemolysis assay, red blood cell lysis. Type of data set: cell-based, CD-1 female mice. Conditions: highest drug concentration that did not lyse the red blood cells; 25°C, two hours; 5 percent dextrose. The procedure: Compound I or a component thereof has potential as a replacement for a known antifungal agent which while effective as an antifungal agent is of limited utility for having lytic effect on red blood cells at low dose levels. This property was discovered in a standard titration/hemolysis assay using fresh blood drawn from CD-1 female mice. In a representative assay, a concentration of Compound IB in the range of from 0.39 to 400 µg/ml in 5 percent dextrose and a drug free control were employed.
In carrying out the determination, the assay tubes prepared by mixing together 2 milliliters of appropriate drug dilution and 0.5 milliliter of red blood cell suspension were gently shaken to mix the contents and then the tubes were incubated at 25°C for two hours. At the end of this time, the tubes were examined visually for complete or partial red blood cell hemolysis and compared to a drug free control. […] The MLC for Compound IB was greater than 400 µg/ml.

Another data set concerns Candida tropicalis. As to the kind of experiment: microbroth dilution assay, minimum fungicidal concentration (MFC). In kind it is cell-based. Conditions: read-out: Minimum Fungicidal Concentration. As to the method:
(§1) The activity may be seen in a microbroth dilution assay employing as medium a Yeast Nitrogen Base (Difco) with 1% dextrose (YNBD) as the medium. In carrying out the assay, Compound IB, IC-1 and IC-2 were solubilized in 10 percent dimethyl sulfoxide (DMSO) and diluted to 2560 µg/ml. The compounds were then diluted to 256 µg/ml in YNBD. 0.15 ml of the suspension was dispensed to the top row of a 96-well plate (each well containing 0.15 ml of YNDB) resulting in a drug concentration of 128 µg/ml. Two-fold dilutions were then made from the top row to obtain final drug concentrations ranging from 128 to 0.06 µg/ml.
(§2) The yeast cultures, maintained on Sabouraud dextrose agar were transferred to YM broth (Difco) and incubated overnight at 35°C with shaking (250 rpm). After incubation, each culture was diluted in sterile water to yield a final concentration of 1-5 x 10⁶ colony forming units (CFU)/ml.
(§3) 96-well microplates were inoculated using a MIC-2000 (Dynatech) which delivers 1.5 µl per well yielding a final inoculum per well of 1.5-7.5 x 10³ cells. The microplates were incubated at 35°C for 24 hours. The minimum inhibitory concentrations (MICs) were recorded as the lowest concentrations of drug showing no visible growth.
(§4) After recording the MIC, the plates were shaken to resuspend the cells. Thereafter, […] samples from the wells in the 96-well microplate were transferred to a single well tray containing Sabouraud dextrose agar. The inoculated trays were incubated 24 hours at 28°C and then read. The MFC is defined as the lowest concentration of drug showing no growth or less than 4 colonies per spot.
In general terms: In broth dilution the organism is exposed to a series of concentrations in liquid medium.

The test system of the next data set is Candida albicans. The description is as above. In kind it is cell-based. As to the method:
as §1, §2, §3, §4

The subject of the next data set is Candida parapsilosis. Described as above. In kind it is cell-based. Conditions: Lodderomyces parapsilosis, YNBD medium. The procedure:
as §1, §2, §3, §4

In brackets after ≈: the same amount, converted by molar mass. Read-outs that look alike come from different tables or passages of the source.

For the compound “1-[N²-(10,12-dimethyl-1-oxotetradecyl)ornithine]-4-[4-(4-hydroxyphenyl)-2-aminobutanoic acid]-5-(3-hydroxyglutamine)echinocandin B [Compound IC]”, the “reduced the number of cysts as compared to the control animals” value in the data set with Pneumocystis carinii (treatment period one week) came out at 66%.

Regarding `C[C@@H]1[C@H](O)[C@@H](C)/C=C/C=C/C=C/C=C/C=C/C=C/C=C/[C@H](O[C@@H]2O[C@H](C)[C@@H](O)[C@H](N)[C@@H]2O)C[C@@H]2O[C@](O)(C[C@@H](O)C[C@@H](O)[C@H](O)CC[C@@H](O)C[C@@H](O)CC(=O)O[C@H]1C)C[C@H](O)[C@H]2C(=O)O` [amphotericin B, reference compound], the “minimum lytic concentration (MLC)” value in the data set with red blood cells is 12.5 µg/mL.

For the compound `CCC(C)CC(C)CCCCCCCCC(=O)NC1CCC(O)NC(=O)C2C(O)C(C)CN2C(=O)C(C(O)CC(N)=O)NC(=O)C(CCc2ccc(O)cc2)NC(=O)C2CC(O)CN2C(=O)C(C(C)O)NC1=O` (stereo not shown) [Compound IB, 1-[5-hydroxy N²-(10, 12-dimethyl-1-oxotetra-decyl)-ornithine]-4-[4-(4-hydroxyphenyl)-2-amino-butanoic acid]-5-(3-hydroxyglutamine) echinocandin B], the “reduced the number of cysts as compared to the control animals” value in the data set with Pneumocystis carinii (treatment period two weeks) is reported as 84%. For the same compound, the MFC came to 2 µg/mL (≈ 1.94 µM) with Candida tropicalis; 1 µg/mL (≈ 0.97 µM) with Candida albicans (read-out: Minimum Fungicidal Concentration, Candida albicans MY 1028, YNBD medium); 0.5 µg/mL (≈ 0.485 µM) in the data set with Candida albicans (read-out: Minimum Fungicidal Concentration, Candida albicans MY 1055, YNBD medium); 2 µg/mL (≈ 1.94 µM) in the data set with Candida albicans (read-out: Minimum Fungicidal Concentration, Candida albicans MY 1208, YNBD medium); 1 µg/mL (≈ 0.97 µM) with Candida albicans (read-out: Minimum Fungicidal Concentration, Candida albicans MY 1585, YNBD medium); 1 µg/mL (≈ 0.97 µM) in the data set on Candida albicans (read-out: Minimum Fungicidal Concentration, Candida albicans MY 1750, YNBD medium). Also, the MFC in the data set with Candida albicans (read-out: Minimum Fungicidal Concentration, Candida albicans MY 1783, YNBD medium) stood at 2 µg/mL (≈ 1.94 µM); in the data set with Candida parapsilosis (read-out: Minimum Fungicidal Concentration, Candida parapsilosis MY 1009), 16 µg/mL (≈ 15.5 µM); in the data set on Candida parapsilosis (read-out: Minimum Fungicidal Concentration, Candida parapsilosis MY 1010) it was 8 µg/mL (≈ 7.76 µM). In addition, the “minimum lytic concentration (MLC)” value in the data set on red blood cells was “greater than 400 µg/ml”.
